pIC50: −log10 of the molar value.
Biological target: TrkA (Homo sapiens (Human), UniProt P04629)
Test: TrkA kinase HTRF enzyme inhibition assay
Assay type: biochemical
Conditions: TrkA pre-incubated with 200 μM ATP
Outline: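 HTRF ratio read-out of biotin-peptide (125 nM) phosphorylation, 1 h reaction after TrkA (2-10 nM) auto-activation with ATP (200 μM) for 20 min and 10 min compound pre-incubation in 50 mM HEPES pH 7.4 with MgCl2/MnCl2. Percent inhibition from initial rates in duplicate, fitted to single-site equation for IC50.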

TrkA, sequence (P04629 33-796): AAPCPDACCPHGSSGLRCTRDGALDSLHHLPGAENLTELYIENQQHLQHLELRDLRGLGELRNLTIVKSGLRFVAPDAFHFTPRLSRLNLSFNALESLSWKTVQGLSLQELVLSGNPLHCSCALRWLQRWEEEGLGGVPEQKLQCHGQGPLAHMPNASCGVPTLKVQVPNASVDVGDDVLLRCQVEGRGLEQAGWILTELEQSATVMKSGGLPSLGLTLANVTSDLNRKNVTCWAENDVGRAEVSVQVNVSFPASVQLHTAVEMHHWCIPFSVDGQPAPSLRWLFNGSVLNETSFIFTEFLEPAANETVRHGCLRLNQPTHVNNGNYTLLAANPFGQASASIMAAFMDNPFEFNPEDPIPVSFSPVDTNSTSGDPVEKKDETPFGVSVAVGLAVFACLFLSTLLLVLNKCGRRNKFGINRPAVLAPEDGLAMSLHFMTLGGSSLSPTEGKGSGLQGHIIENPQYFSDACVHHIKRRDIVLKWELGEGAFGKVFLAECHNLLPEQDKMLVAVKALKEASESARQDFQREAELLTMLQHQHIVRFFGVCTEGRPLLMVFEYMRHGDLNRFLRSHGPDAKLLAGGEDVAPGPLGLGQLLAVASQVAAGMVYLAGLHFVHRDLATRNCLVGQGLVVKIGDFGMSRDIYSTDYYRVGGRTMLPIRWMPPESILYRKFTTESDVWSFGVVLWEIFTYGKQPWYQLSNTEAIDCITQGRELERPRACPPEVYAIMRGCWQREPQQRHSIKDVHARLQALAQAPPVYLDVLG

SMILES	pIC50
CCOc1nc(N2CCN(C(C)=O)CC2)ccc1NC(=O)c1coc2c1C(=O)NC1(CCCCC1)C2 [Example 112, N-[6-(4-acetylpiperazin-1-yl)-2-ethoxypyridin-3-yl]-4′-oxo-4′,7′-dihydro-5′H-spiro[cyclohexane-1,6′-furo[3,2-c]pyridine]-3′-carboxamide]	7.56
CCOc1nc(N2CCN(C(C)=O)CC2)ccc1NC(=O)c1coc2c1C(=O)NC1(C2)CN(C(C)=O)C1 [Example 113, 1-acetyl-N-[6-(4-acetylpiperazin-1-yl)-2-ethoxypyridin-3-yl]-4′-oxo-4′,7′-dihydro-5′H-spiro[azetidine-3,6′-furo[3,2-c]pyridine]-3′-carboxamide]	7.18
CCOc1nc(N2CCN(C(C)=O)CC2)ccc1NC(=O)c1coc2c1C(=O)NC1(COC1)C2 [Example 114, N-[6-(4-acetylpiperazin-1-yl)-2-ethoxypyridin-3-yl]-4-oxo-4,7-dihydro-5H-spiro[furo[3,2-c]pyridine-6,3′-oxetane]-3-carboxamide]	8.14
CCOc1nc(N2CCN(C(C)=O)CC2)ccc1NC(=O)c1coc2c1C(=O)N[C@@H]([C@@H](C)O)C2 [Example 115, (6R)—N-[6-(4-acetylpiperazin-1-yl)-2-ethoxypyridin-3-yl]-6-[(1R)-1-hydroxyethyl]-4-oxo-4,5,6,7-tetrahydrofuro[3,2-c]pyridine-3-carboxamide]	8.07
CCOc1nc(N2CCN(C(C)=O)CC2)ccc1NC(=O)c1coc2c1C(=O)N(CCO)C1(CCC1)C2 [Example 116, N-[6-(4-acetylpiperazin-1-yl)-2-ethoxypyridin-3-yl]-5′-(2-hydroxyethyl)-4′-oxo-4′,7′-dihydro-5′H-spiro[cyclobutane-1,6′-furo[3,2-c]pyridine]-3′-carboxamide]	8.51
CCOc1nc(N2CCN(C(C)=O)CC2)ccc1NC(=O)c1coc2c1C(=O)NC1(CC1)C2 [Example 117, N-[6-(4-acetylpiperazin-1-yl)-2-ethoxypyridin-3-yl]-4′-oxo-4′,7′-dihydro-5′H-spiro[cyclopropane-1,6′-furo[3,2-c]pyridine]-3′-carboxamide]	8.28
CCOc1nc(N2CCN(C(=NC#N)NC)CC2)ccc1NC(=O)c1coc2c1C(=O)NC1(CCC1)C2 [Example 118, N-{6-[4-(N′-cyano-N-methylcarbamimidoyl)piperazin-1-yl]-2-ethoxypyridin-3-yl}-4′-oxo-4′,7′-dihydro-5′H-spiro[cyclobutane-1,6′-furo[3,2-c]pyridine]-3′-carboxamide]	8.52
CCOc1nc(N2CCN(C(C)=O)CC2)ccc1NC(=O)c1coc2c1C(=O)N(CC(O)CO)C(C)(C)C2 (stereo not shown) [Example 119, N-[6-(4-acetylpiperazin-1-yl)-2-ethoxypyridin-3-yl]-5-(2,3-dihydroxypropyl)-6,6-dimethyl-4-oxo-4,5,6,7-tetrahydrofuro[3,2-c]pyridine-3-carboxamide]	8.17
COc1cc(N2CCNCC2)ccc1NC(=O)c1coc2c1C(=O)NC(C)(C)C2 [Example 120, N-[2-methoxy-4-(piperazin-1-yl)phenyl]-6,6-dimethyl-4-oxo-4,5,6,7-tetrahydrofuro[3,2-c]pyridine-3-carboxamide]	7.55
COc1nc(N2CCN(C(C)=O)CC2)ccc1NC(=O)c1coc2c1C(=O)NC(C)(C)C2 [Example 122, N-[6-(4-acetylpiperazin-1-yl)-2-methoxypyridin-3-yl]-6,6-dimethyl-4-oxo-4,5,6,7-tetrahydrofuro[3,2-c]pyridine-3-carboxamide]	7.85
COc1nc(N2CCN(C(=O)N3CCCC3)CC2)ccc1NC(=O)c1coc2c1C(=O)NC(C)(C)C2 [Example 123, N-{2-methoxy-6-[4-(pyrrolidin-1-ylcarbonyl)piperazin-1-yl]pyridin-3-yl}-6,6-dimethyl-4-oxo-4,5,6,7-tetrahydrofuro[3,2-c]pyridine-3-carboxamide]	7.92
COc1cc(N2CCNCC2)ccc1NC(=O)c1coc2c1C(=O)NC(C)C2 (stereo not shown) [Example 124, N-[2-methoxy-4-(piperazin-1-yl)phenyl]-6-methyl-4-oxo-4,5,6,7-tetrahydrofuro[3,2-c]pyridine-3-carboxamide]	7.13
COc1cc(N2CCN(S(C)(=O)=O)CC2)ccc1NC(=O)c1coc2c1C(=O)NC(C)(C)C2 [Example 125, N-{2-methoxy-4-[4-(methylsulfonyl)piperazin-1-yl]phenyl}-6,6-dimethyl-4-oxo-4,5,6,7-tetrahydrofuro[3,2-c]pyridine-3-carboxamide]	7.44
CCOc1nc(N2CCNCC2)ccc1NC(=O)c1coc2c1C(=O)NC(C)(C)C2 [Example 127, N-[2-ethoxy-6-(piperazin-1-yl)pyridin-3-yl]-6,6-dimethyl-4-oxo-4,5,6,7-tetrahydrofuro[3,2-c]pyridine-3-carboxamide]	7.88

The remaining lines, values ahead:

pIC50	SMILES
7.97	CC(C)Oc1nc(N2C[C@H]3CCN[C@H]3C2)ccc1NC(=O)c1coc2c1C(=O)NC(C)(C)C2 [Example 129, N-{6-[(3 aR,6aR)-hexahydropyrrolo[3,4-b]pyrrol-5(1H)-yl]-2-isopropoxypyridin-3-yl}-6,6-dimethyl-4-oxo-4,5,6,7-tetrahydrofuro[3,2-c]pyridine-3-carboxamide]
7.42	COc1nc(N2CC[C@@H]3CN(C)C[C@@H]32)ccc1NC(=O)c1coc2c1C(=O)NC(C)(C)C2 [Example 130, N-{2-methoxy-6-[(3aR,6aR)-5-methylhexahydropyrrolo[3,4-b]pyrrol-1 (2H)-yl]pyridin-3-yl}-6,6-dimethyl-4-oxo-4,5,6,7-tetrahydrofuro[3,2-c]pyridine-3-carboxamide]
7.01	CC(C)Oc1nc(N2C[C@@H]3CCN(CCO)[C@@H]3C2)ccc1NC(=O)c1coc2c1C(=O)NC(C)(C)C2 [Example 131, N-{6-[(3aS,6aS)-1-(2-hydroxyethyl)hexahydropyrrolo[3,4-b]pyrrol-5(1H)-yl]-2-isopropoxypyridin-3-yl}-6,6-dimethyl-4-oxo-4,5,6,7-tetrahydrofuro[3,2-c]pyridine-3-carboxamide]
8.16	CC(C)Oc1nc(N2C[C@H]3CCN(C(=O)N4CCN(C)CC4)[C@H]3C2)ccc1NC(=O)c1coc2c1C(=O)NC(C)(C)C2 [Example 132, N-{2-isopropoxy-6-[(3aR,6aR)-1-[(4-methylpiperazin-1-yl)carbonyl]hexahydropyrrolo[3,4-b]pyrrol-5(1H)-yl]pyridin-3-yl}-6,6-dimethyl-4-oxo-4,5,6,7-tetrahydrofuro[3,2-c]pyridine-3-carboxamide]
8.48	CC(=O)N1CCN(c2ccc(NC(=O)c3coc4c3C(=O)NC(C)(C)C4)c(OC(C)C)n2)C[C@H]1CO [Example 133, N-{6-[(3S)-4-acetyl-3-(hydroxymethyl)piperazin-1-yl]-2-isopropoxypyridin-3-yl}-6,6-dimethyl-4-oxo-4,5,6,7-tetrahydrofuro[3,2-c]pyridine-3-carboxamide]
8.41	CC(=O)N1CCN(c2ccc(NC(=O)c3coc4c3C(=O)NC(C)(C)C4)c(OC(C)C)n2)[C@H](CO)C1 [Example 134, N-{6-[(2S)-4-acetyl-2-(hydroxymethyl)piperazin-1-yl]-2-isopropoxypyridin-3-yl}-6,6-dimethyl-4-oxo-4,5,6,7-tetrahydrofuro[3,2-c]pyridine-3-carboxamide]
8.64	CC(C)Oc1nc(N2CCN(C(=O)N3CCOCC3)C[C@H]2CO)ccc1NC(=O)c1coc2c1C(=O)NC(C)(C)C2 [Example 135, N-{6-[(2S)-2-(hydroxymethyl)-4-(morpholin-4-ylcarbonyl)piperazin-1-yl]-2-isopropoxypyridin-3-yl}-6,6-dimethyl-4-oxo-4,5,6,7-tetrahydrofuro[3,2-c]pyridine-3-carboxamide]
7.99	CC(C)Oc1nc(N2CC[C@H](N(C)C)C2)ccc1NC(=O)c1coc2c1C(=O)NC(C)(C)C2 [Example 136, N-{6-[(3S)-3-(dimethylamino)pyrrolidin-1-yl]-2-isopropoxypyridin-3-yl}-6,6-dimethyl-4-oxo-4,5,6,7-tetrahydrofuro[3,2-c]pyridine-3-carboxamide]
7.88	CC(C)Oc1nc(N2CCC[C@H](CO)C2)ccc1NC(=O)c1coc2c1C(=O)NC(C)(C)C2 [Example 137, N-{6-[(3S)-3-(hydroxymethyl)piperidin-1-yl]-2-isopropoxypyridin-3-yl}-6,6-dimethyl-4-oxo-4,5,6,7-tetrahydrofuro[3,2-c]pyridine-3-carboxamide]
8.20	CC(=O)N1CCN(c2ccc(NC(=O)c3coc4c3C(=O)NC(C)(C)C4)c(OC(C)C)n2)C[C@@H]1CO [Example 138, N-{6-[(3R)-4-acetyl-3-(hydroxymethyl)piperazin-1-yl]-2-isopropoxypyridin-3-yl}-6,6-dimethyl-4-oxo-4,5,6,7-tetrahydrofuro[3,2-c]pyridine-3-carboxamide]
8.62	CC(=O)N1CCN(c2ccc(NC(=O)c3coc4c3C(=O)NC(C)(C)C4)c(OC(C)C)n2)[C@@H](CO)C1 [Example 139, N-{6-[(2R)-4-acetyl-2-(hydroxymethyl)piperazin-1-yl]-2-isopropoxypyridin-3-yl}-6,6-dimethyl-4-oxo-4,5,6,7-tetrahydrofuro[3,2-c]pyridine-3-carboxamide]
7.98	CC(C)Oc1nc(N(CCO)CCO)ccc1NC(=O)c1coc2c1C(=O)NC(C)(C)C2 [Example 140, N-{6-[bis(2-hydroxyethyl)amino]-2-isopropoxypyridin-3-yl}-6,6-dimethyl-4-oxo-4,5,6,7-tetrahydrofuro[3,2-c]pyridine-3-carboxamide]
7.22	COCCOc1ccc(NC(=O)c2coc3c2C(=O)NC(C)(C)C3)c(OCCOC)n1 [Example 141, N-[2,6-bis(2-methoxyethoxy)pyridin-3-yl]-6,6-dimethyl-4-oxo-4,5,6,7-tetrahydrofuro[3,2-c]pyridine-3-carboxamide]
8.74	COC[C@@H]1CN(c2ccc(NC(=O)c3coc4c3C(=O)NC(C)(C)C4)c(OCC(C)(C)O)n2)CCN1C(C)=O [Example 142, N-{6-[(3S)-4-acetyl-3-(methoxymethyl)piperazin-1-yl]-2-(2-hydroxy-2-methylpropoxy)pyridin-3-yl}-6,6-dimethyl-4-oxo-4,5,6,7-tetrahydrofuro[3,2-c]pyridine-3-carboxamide]
